Assay results reported in US20210290524A1, “TOPICAL TRPV1 ANTAGONISTS AND METHODS AND COMPOSITIONS THEREOF” (CHILDREN'S MEDICAL CENTER CORPORATION, priority 2016, published 2021).
Ends that are not written are not given here.

Experiments:
TRPV1 [1] = molecular target: T1, TRPV1 (Mus musculus, UniProt Q704Y3)
TRPV1 [2] = molecular target: T2, TRPV1 (Homo sapiens, UniProt Q8NER1); details: applied topically; cited from earlier work
[3] = test system: TrpV1 expressing afferents; assay: in vivo calcium imaging of injury-activated trigeminal ganglion neurons, topical capsaicin; parameters: species or system mouse; details: topical 5 mM capsaicin after incision injury, 32 of 38 neurons
Text: FIG. 9A is a micrograph of calcium imaging field in trigeminal ganglion of VGlut2^Cre; Rosa26^LSL-GCαMP6f mouse, with neurons active after injury highlighted. Scale bar is 100 μm. […] (The VGlut2^Cre; Rosa26^LSL-GCαMP6f mouse is generated by crossing a VGlut2-Cre mice with a […] mice, therefore the resulting double transgenic VGlut2^Cre; Rosa26^LSL-GCαMP6f mice express tD-Tomato (a red fluorescence protein) in all the sensory neurons but not in any other type of neuron. This allows for labeling and imaging of only sensory neurons in vivo.)
The inventors assessed effect of topical TRPV1 agonist capsaicin applied after acute injury and wound in a mouse model in vivo. […] Capsaicin, a TRPV1 agonist, was later applied to the same region to determine that an unexpected high number of neurons, […] of neurons activated by injury were also TRPV1-positive.

TRPV1 [4] = molecular target: T1, TRPV1; details: Hot-plate test 52±0.1° C.
[5] = test system: TRPV1 pore turret domain mutants (G603-N626); details: deletion and substitution mutations
TRPV4 = TRPV4 (Mus musculus, UniProt Q9EPK8); details: 30 μM; GSK 1016790A 1 μM
rat TRPV1 = rat TRPV1 (Rattus norvegicus, UniProt O35433); details: 1 μM
TRPV1 [6] = molecular target: T1, TRPV1; assay: whole cell patch clamp of capsaicin-induced currents in primary murine DRG neurons; format: cell-based; parameters: capsaicin-induced currents in primary murine DRG neurons using whole cell patch clamp; endogenous in cells; host or cells: primary murine dorsal root ganglion (DRG) neurons; details: for block of capsaicin-induced currents by opiorphin family peptides: DRG neurons
TRPV1 [7] = molecular target: T1, TRPV1; assay: capsaicin-induced calcium flux in primary murine DRG neurons (plate-based/FLIPR); format: cell-based; parameters: capsaicin-induced currents in primary murine DRG neurons using whole cell patch clamp; endogenous in cells; host or cells: primary murine dorsal root ganglion (DRG) neurons; details: DRG neuron, read-out: inhibition of capsaicin-induced calcium flux
Text: To test the possibility that saliva may inhibit the TRPV1 heat pain receptor^12-14 in nociceptors, we collected samples of whole saliva from four human donors and ran a screen on primary murine dorsal root ganglion (DRG) neurons.

TRPV1 [8] = molecular target: T1, TRPV1; details: 5 nmol/mouse with capsaicin 5 nmol/mouse, paw injection
Text: Injection of capsaicin into a paw produces a short bout of biting and licking.

TRPM8 = TRPM8 (Mus musculus, UniProt Q8R4D5); details: 30 μM; Menthol 100 μM
TRPA1 = TRPA1 (Mus musculus, UniProt Q8BLA8); details: 30 μM; AITC 50 μM
P2X3 = P2X3 (Mus musculus, UniProt Q3UR32); details: 30 μM; α,β-methylene-ATP 30 μM
TRPV1 [9] = details: pH 5.6; 1 μM
rTRPV1 = rTRPV1 (Rattus norvegicus, UniProt O35433)
Method: To identify if the antagonists were peptides, we purified saliva through a 30 kDa filter to eliminate large proteins and then used reverse-phase HPLC to fractionate the samples (FIG. 1B). […] The resultant 37 1 mL-fractions were dried, reconstituted in HBSS and screened on HEK cells transiently transfected with TRPV1 (FIG. 1C).

TRPV1 [10] = molecular target: T1, TRPV1; details: Von frey filaments
TRPV1 [11] = molecular target: T2, TRPV1; details: HEK293 cells transiently expressing hTRPV1

T1 sequence (Q704Y3 whole entry): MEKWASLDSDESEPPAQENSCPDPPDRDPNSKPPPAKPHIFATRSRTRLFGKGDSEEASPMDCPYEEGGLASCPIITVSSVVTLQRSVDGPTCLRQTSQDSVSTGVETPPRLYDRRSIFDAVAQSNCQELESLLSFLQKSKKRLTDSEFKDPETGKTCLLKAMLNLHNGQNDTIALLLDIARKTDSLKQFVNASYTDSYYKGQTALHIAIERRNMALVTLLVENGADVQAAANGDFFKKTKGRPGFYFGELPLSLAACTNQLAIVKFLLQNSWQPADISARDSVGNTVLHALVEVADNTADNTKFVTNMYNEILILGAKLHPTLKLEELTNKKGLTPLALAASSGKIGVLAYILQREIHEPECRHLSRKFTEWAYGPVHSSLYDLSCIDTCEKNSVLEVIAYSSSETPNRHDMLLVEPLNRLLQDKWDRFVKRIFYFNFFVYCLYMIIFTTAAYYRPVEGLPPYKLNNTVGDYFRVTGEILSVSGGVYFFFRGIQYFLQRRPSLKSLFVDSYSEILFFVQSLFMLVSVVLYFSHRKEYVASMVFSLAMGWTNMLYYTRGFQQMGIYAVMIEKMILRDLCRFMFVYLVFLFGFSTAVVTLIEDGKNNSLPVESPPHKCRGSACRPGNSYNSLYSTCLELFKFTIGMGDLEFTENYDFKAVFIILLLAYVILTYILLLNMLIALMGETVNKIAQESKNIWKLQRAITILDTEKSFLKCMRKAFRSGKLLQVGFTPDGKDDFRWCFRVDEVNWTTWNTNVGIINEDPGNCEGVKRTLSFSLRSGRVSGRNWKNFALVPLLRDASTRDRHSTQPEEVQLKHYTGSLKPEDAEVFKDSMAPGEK
rat TRPV1, sequence (O35433 whole entry): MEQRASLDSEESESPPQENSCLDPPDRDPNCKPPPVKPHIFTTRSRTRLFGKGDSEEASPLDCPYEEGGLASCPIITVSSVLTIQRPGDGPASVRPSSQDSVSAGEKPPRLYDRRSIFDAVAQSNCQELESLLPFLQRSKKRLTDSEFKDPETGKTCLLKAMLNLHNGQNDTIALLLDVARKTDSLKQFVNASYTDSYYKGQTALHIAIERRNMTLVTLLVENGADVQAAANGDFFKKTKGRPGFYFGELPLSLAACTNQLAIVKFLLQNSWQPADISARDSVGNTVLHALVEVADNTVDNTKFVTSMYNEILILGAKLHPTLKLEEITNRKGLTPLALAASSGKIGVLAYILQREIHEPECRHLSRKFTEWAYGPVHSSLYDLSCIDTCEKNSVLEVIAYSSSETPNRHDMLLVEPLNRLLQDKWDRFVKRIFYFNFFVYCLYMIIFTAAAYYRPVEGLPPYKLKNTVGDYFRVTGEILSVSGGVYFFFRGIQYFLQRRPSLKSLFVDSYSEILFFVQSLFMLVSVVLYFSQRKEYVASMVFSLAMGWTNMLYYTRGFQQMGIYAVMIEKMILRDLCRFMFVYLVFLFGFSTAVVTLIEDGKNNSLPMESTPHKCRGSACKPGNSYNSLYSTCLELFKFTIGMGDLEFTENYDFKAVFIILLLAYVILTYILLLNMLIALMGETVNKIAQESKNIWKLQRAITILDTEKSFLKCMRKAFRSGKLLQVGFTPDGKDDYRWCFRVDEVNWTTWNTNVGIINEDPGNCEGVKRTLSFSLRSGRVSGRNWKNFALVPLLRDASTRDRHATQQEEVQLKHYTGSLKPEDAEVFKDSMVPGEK
rTRPV1, sequence (O35433 whole entry): as above
T2 sequence (Q8NER1 whole entry): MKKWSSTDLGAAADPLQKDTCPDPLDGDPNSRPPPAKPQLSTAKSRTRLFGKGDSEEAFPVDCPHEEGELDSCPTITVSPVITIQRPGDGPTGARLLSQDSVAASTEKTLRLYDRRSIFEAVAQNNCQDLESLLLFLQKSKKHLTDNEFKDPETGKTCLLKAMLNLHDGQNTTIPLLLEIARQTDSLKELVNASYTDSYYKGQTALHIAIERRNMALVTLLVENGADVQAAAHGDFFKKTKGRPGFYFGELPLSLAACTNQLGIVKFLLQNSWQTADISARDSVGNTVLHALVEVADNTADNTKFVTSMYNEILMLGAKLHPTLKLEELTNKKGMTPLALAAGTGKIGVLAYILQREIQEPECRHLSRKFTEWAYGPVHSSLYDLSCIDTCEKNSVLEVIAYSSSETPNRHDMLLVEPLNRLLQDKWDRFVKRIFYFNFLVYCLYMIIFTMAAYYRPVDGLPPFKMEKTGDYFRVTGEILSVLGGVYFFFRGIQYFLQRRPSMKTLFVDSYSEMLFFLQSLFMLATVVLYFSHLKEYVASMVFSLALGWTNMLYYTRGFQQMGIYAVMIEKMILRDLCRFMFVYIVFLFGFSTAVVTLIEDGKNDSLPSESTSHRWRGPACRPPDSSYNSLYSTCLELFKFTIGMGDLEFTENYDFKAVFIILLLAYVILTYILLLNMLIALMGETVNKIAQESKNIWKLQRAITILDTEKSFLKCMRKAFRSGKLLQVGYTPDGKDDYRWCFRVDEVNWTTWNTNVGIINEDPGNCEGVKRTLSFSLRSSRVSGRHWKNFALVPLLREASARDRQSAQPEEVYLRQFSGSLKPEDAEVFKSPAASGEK
P2X3, sequence (Q3UR32 whole entry): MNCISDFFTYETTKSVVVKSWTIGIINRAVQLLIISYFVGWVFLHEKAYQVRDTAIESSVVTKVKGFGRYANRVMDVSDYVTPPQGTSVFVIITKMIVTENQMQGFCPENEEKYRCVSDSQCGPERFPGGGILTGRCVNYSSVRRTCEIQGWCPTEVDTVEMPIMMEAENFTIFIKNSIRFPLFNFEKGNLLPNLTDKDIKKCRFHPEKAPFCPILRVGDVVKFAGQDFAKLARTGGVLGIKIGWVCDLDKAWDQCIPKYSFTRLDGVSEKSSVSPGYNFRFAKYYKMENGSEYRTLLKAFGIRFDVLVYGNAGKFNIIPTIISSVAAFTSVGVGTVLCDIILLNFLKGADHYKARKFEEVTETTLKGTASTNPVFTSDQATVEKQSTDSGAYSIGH
TRPA1, sequence (Q8BLA8 whole entry): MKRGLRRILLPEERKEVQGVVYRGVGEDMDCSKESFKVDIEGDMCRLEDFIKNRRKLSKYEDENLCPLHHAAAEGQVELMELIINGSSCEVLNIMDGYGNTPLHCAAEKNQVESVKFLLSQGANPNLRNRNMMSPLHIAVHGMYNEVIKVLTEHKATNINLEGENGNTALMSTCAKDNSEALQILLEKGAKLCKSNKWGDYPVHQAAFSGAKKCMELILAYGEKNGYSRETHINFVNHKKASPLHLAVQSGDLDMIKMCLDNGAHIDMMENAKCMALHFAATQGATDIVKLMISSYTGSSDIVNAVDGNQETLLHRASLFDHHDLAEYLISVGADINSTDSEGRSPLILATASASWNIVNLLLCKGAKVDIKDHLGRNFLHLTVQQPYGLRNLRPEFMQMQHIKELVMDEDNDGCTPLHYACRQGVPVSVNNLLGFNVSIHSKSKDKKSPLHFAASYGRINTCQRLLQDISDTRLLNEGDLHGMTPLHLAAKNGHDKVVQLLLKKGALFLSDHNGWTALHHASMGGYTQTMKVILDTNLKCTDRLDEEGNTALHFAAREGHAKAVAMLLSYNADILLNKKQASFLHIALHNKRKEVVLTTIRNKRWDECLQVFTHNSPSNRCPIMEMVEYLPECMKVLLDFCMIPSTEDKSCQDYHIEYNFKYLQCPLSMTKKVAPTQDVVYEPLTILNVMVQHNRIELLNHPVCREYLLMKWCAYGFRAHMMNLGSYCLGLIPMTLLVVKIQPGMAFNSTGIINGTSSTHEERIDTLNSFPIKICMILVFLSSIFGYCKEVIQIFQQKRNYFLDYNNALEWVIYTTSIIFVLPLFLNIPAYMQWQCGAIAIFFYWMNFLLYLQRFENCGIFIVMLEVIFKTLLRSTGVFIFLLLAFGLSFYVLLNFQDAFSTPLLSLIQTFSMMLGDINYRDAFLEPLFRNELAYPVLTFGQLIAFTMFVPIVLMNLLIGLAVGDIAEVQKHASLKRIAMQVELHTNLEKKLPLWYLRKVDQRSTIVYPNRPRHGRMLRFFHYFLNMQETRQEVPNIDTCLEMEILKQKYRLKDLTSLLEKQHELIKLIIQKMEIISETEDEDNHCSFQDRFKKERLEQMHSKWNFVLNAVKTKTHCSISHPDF
TRPV4, sequence (Q9EPK8 whole entry): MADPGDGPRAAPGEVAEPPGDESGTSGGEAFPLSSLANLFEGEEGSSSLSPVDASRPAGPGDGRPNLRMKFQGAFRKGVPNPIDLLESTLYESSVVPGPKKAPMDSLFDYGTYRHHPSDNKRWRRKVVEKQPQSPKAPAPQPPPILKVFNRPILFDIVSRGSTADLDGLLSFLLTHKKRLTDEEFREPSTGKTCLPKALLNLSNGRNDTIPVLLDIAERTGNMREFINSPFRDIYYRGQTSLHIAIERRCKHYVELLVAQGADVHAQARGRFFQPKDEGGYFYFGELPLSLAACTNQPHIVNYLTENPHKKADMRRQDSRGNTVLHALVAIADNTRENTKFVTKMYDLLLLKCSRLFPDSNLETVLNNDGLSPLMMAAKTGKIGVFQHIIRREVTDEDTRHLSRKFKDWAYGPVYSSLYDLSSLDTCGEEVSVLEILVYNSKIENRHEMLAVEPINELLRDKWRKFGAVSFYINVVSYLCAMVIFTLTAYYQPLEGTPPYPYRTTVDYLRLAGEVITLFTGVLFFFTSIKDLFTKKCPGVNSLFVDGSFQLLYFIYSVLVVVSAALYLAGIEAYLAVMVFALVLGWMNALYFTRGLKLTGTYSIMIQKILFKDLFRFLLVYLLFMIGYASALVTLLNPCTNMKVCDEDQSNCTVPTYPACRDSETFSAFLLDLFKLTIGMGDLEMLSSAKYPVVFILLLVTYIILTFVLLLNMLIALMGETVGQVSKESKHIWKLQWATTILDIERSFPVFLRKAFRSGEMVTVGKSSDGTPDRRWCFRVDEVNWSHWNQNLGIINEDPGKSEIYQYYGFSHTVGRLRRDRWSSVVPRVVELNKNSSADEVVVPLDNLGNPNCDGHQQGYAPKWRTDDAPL

Compound: CC(C)(C)c1ccc(/C=C/C(=O)Nc2ccc3c(c2)OCCO3)cc1 [AMG 9810, (E)-3-(4-t-butylphenyl)-N-(2,3-dihydrobenzo[b][1,4]dioxin-6-yl)acrylamide, reference compound]
- acute licking of superficial paw incision wound (TRPV1 [1]; topical 30 μM, mice): reduced

Compound: O=C(Nc1ccccc1Br)N[C@@H]1CCN(c2ccc(C(F)(F)F)cn2)C1 [SB705498]
- symptomatic benefit for induced itch (TRPV1 [2]): not to be of symptomatic benefit

Compound: COc1cc(CNC(=O)CCCC/C=C/C(C)C)ccc1O [capsaicin]
- injury-activated neurons responding to capsaicin [3]: 84%
- injury-activated neurons responding to capsaicin ([3]; listed as Capsaicin): ~86%

Compound: QRFSR [opiorphin]
- licking/biting response to superficial paw incision (TRPV1 [1]; topical 10 μM, 5 s, C57 mice, vs topical saline): eliminated
- thermal hypersensitivity after capsaicin injection (TRPV1 [4]): reduced
- inhibitory activity on pore turret mutants [5]: loss of opiorphin inhibitory activity
- inhibition of calcium flux by TRPV4 agonist (TRPV4): did not inhibit
- inhibition of resiniferatoxin action (rat TRPV1; RTX 100 nM, HEK293 rTRPV1): inhibited the action
- antagonism of capsaicin-evoked currents across voltages (rat TRPV1; capsaicin 1 μM, HEK293 rat TRPV1): antagonized capsaicin-evoked currents at all voltages tested
- block of capsaicin-induced currents (TRPV1 [6]): effectively eliminated
- effect on TRPV1 currents, external application (TRPV1 [6]): substantially reduced
- effect on TRPV1 currents, internal application (TRPV1 [6]): no change in TRPV1 currents was detected
- inhibition of capsaicin currents when applied into capsaicin application (TRPV1 [6]): inhibited capsaicin currents
- ability to block capsaicin-evoked currents after pertussis toxin (TRPV1 [6]; PTX 1 μg/mL, 3 hours): remained intact
- inhibition at 1 µM (TRPV1 [7]): ~50%
- capsaicin-induced licking response (TRPV1 [8]): significantly reduced
- inhibition of calcium flux by TRPM8 agonist (TRPM8): did not inhibit
- inhibition of calcium flux by TRPA1 agonist (TRPA1): did not inhibit
- inhibition of calcium flux by P2X3 agonist (P2X3): did not inhibit
- inhibition of proton-induced currents (TRPV1 [9]): strongly inhibited
- peak efficacy of capsaicin reduced to (rTRPV1; 100 nM opiorphin): ~50%
- mode of inhibition versus capsaicin (rTRPV1; no rightward-shift of capsaicin curve): non-competitively
- mechanical hypersensitivity after capsaicin injection (TRPV1 [10]): reduced
- inhibition of capsaicin-induced currents (TRPV1 [11]): inhibited capsaicin-induced currents

Compound: SMR3 peptide: SMR3 peptide (QRGPR; SEQ ID NO: 5) of the opiorphin family [reference compound]
- block of capsaicin-induced currents by opiorphin family peptides (TRPV1 [6]): no such activity

Compound: sialorphin: rat peptide sialorphin (QHNPR, SEQ ID NO: 4) of the opiorphin family (listed as Rattus norvegicus) [reference compound]
- block of capsaicin-induced currents by opiorphin family peptides (TRPV1 [6]): blocked capsaicin-induced currents
